Consider four sequences from patent publication EP1983049B1, “Peptides binding to the Lck-SH3 and Hck-SH3 domains” (Forschungszentrum Jülich GmbH, priority 2005, dated 2006).

In experiment [1] the target is T1, Lck-SH3 (Homo sapiens, UniProt P06239).
T1 construct: Inkubation der Membran mit dem zu untersuchenden Protein (hier Lck-SH3); made in house
Kind of experiment: PepSpot membrane substitution analysis, relative Lck binding activity. The following applies: 7 of 12 positions of PD1-R substituted, 0,5 µg/ml SH3 protein, Fig. 4. The text has this:
Eine andere Methode, Protein-Protein-Wechselwirkungen zu untersuchen, ist die Benutzung so genannter PepSpot-Membranen. Sie basiert auf der Synthese von immobilisierten Peptiden auf aktivierten Membrane und kann z. B. zur Optimierung der Bindungseigenschaften bereits identifizierter Liganden durch Substitutionsanalyse verwendet werden. Nach der Inkubation der Membran mit dem zu untersuchenden Protein (hier Lck-SH3) und der anschließenden Detektion wird anhand der Spotfärbung eine Interaktion des Proteins mit den entsprechenden immobilisierten Peptiden nachgewiesen. Die Stärke der Spotintensitäten ist ein Maß für die Stärke der Bindung. Eine zusammenfassende Übersicht findet sich bei Reinecke U., Volkmer-Engert R., Schneider-Mergener J. Applikation of peptide arrays prepared by the SPOT-technology. Current Opinion in Biotechnology 2001, 12:59-64.
Für den Immunoassay wurde die PepSpot-Membran über Nacht in 20 ml Blocking Puffer geblockt. Nach einmaligem Waschen mit T-TBS für 10 min wurde die Membran für 3 h mit 0,5 µg/ml SH3 Protein in 20 ml Blocking Puffer inkubiert. Danach wurde die Membran dreimal für je 10 min mit T-TB S gewaschen. […] Die Spot-Intensitäten wurden mit der QuantityOne Software (Bio-Rad, München) ausgewertet Die Analyse der Spot-Intensitäten erfolgte nach Subtraktion des Hintergrundes. […]

Experiment [2] concerns the target Hck-SH3 (Homo sapiens, UniProt P08631). Briefly: Fluorescence titration (intrinsic tryptophan fluorescence), binding constant. The following applies: Hck SH3 domain; fluorescence titration, 0,5 µM SH3 domain in PBS, 1mM DDT; each experiment done twice. The text has this: (§1) Die Messungen wurden im Wesentlichen wie bei Schweimer K, Hoffmann S, Bauer F, Friedrich U, Kardinal C, Feller SM, Biesinger B, Sticht H. Structural investigation of the bindung of a herpesviral protein to the SH3 domain of tyrosine kinase Lck. Biochemistry. 2002 Apr 23;41(16):5120-30 beschrieben unter Verwendung eines Perkin-Elmer LS 55 Fluoreszenzspektrometers bei einer Anregungswellenlänge von 290 nm und einer Emissionswellenlänge von 345 nm durchgeführt. […] Nach PD1-Zugabe wurde jeweils die resultierende Fluoreszenzänderung aufgezeichnet. Durch eine Kontrolltitration (Hintergrundmessung), bei welcher die Peptidlösung gegen Wasser ersetzt wurde, konnten die Abweichungen der Fluoreszenzweite, welche durch eine sinkende SH3-Endkonzentration während der Titration hervorgerufen wurden, ausgeglichen werden. […] F = Fmin + (([Pges] + [Lges] + Kd)/(2)-sqrt(((([Pges]+[Lges]+Kd))^2)/(4)-[Pges]*[Lges]))*((Fmax-Fmin))/(Pges) [formula]
(§2) Durch nichtlineare Regression mit Fmax und Kd als angepasste Parameter konnten die experimentellen Daten an obige Gleichung angepasst werden.

Experiment [3] deals with T1, Lck-SH3. The experiment is described as above. The following applies: Lck SH3 domain; fluorescence titration, 0,5 µM free SH3 domain in PBS, 1mM DDT; each experiment done twice.
From the text: as §1, §2

The target of experiment [4] is PI3K SH3 Domäne (Homo sapiens, UniProt P27986). The experiment is described as above. The following applies: PI3K SH3 domain; fluorescence titration, 0,5 µM SH3 domain in PBS, 1mM DDT; each experiment done twice.
Chain of PI3K SH3 Domäne (P27986 3-79 limits assumed): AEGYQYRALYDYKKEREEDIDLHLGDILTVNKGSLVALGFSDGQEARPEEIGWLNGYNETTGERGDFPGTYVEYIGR
From the text: as §1, §2

Experiment [5] concerns the target Abl SH3 Domäne (Homo sapiens, UniProt P00519). The experiment is described as above. Particulars: Abl SH3 domain; fluorescence titration, 0,5 µM SH3 domain in PBS, 1mM DDT; each experiment done twice.
From the text: as §1, §2

Experiment [6] deals with T2, GST-Lck-SH3 (Homo sapiens, UniProt P06239).
T2 construct: rekombinant hergestellte Lck SH3 als Fusion mit Glutathion-S-Transferase (GST-Lck-SH3); made in house
T2 sequence (P06239 61-121 limits assumed): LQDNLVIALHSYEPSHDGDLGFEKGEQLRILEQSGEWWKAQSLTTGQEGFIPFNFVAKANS
Kind of experiment: anti-Phage-ELISA, relative Lck-SH3 binding activity of phage clones. Particulars: phage-displayed peptide; detection at 450 nm; Fig. 1; 7 single experiments. The text has this:
Dieser Bindungstest ist ein häufig verwendeter Test zur schnellen Bestimmung relativer Bindungsstarken selektierter Peptide, die hierbei noch physikalisch mit dem Phagen verknüpft vorliegen. Dieser Schritt dient auch zur Eliminierung von (bei dieser Methode nicht selten auftretenden) Phagenvarianten, die z. B. aufgrund ihrer Affinität zur Plastikoberfläche der verwendeten Mikrotiterplatten, angereichert werden und die somit zur Verfälschung der Ergebnisse führen können. Eine grundsätzliche Beschreibung der Methode findet sich z. B. unter Sparks et al. Methods Enzymol. 1995; 255:498-509.
GST-Lck-SH3 Protein wurde in einer Konzentration von 10 µg/ml in Tris-Bis über Nacht bei 4°C in Mikrotiterplatten immobilisiert. Verbleibende Bindungsstellen wurden durch 2-stündige Inkubation mit Blockierungspuffer (Bis-Tris mit 2.% Magermilchpulver) abgesättigt.
In einer anderen Mikrotiterplatte wurden zuerst je 100 µl Suspension der zu testenden Phagenvariante mit 100 µl Blockierungspuffer für 20 Minuten vorinkubiert und erst dann für 1 Stunde zum immobilisierten GST-Lck-SH3 Protein gegeben. Nach einem Waschschritt mit Bis-Tris wurde ein Meerrettich-Peroxidase-konjugierter Antikörper zugegeben und die Platten für eine weitere Stunde inkubiert. […]
For orientation: ELISA stands for enzyme-linked immunosorbent assay.

A word on the Kd: it is the free concentration of one partner at which half of the binding sites on the other are occupied at equilibrium, for simple one-to-one binding.

Where no end group is shown, it is not given here. A value given as a limit tells only on which side of the number the result lay.

T1 sequence (P06239 61-121 limits assumed): as above
Chain of Hck-SH3 (P08631 78-138 limits assumed): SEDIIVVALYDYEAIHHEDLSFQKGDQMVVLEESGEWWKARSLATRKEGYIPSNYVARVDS
Chain of Abl SH3 Domäne (P00519 61-121 limits assumed): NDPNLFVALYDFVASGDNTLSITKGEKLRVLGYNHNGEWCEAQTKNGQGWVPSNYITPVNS

For “HFKRPLPPLPSL [PD1-R(-5)F, substitution variant of PD1-R found on PepSpot membrane]”, in experiment [1], the “Bindung an die Lck-SH3 (Spot-Intensität)” value is “stärkste Bindung”.
In the case of HSKRPLPPLPSL [PD1-R], the Kd in experiment [2] is 0.47 ± 0.02 µM; in experiment [3], 23.1 ± 1.97 µM; in experiment [4], 13.1 ± 0.48 µM; in experiment [5], more than 300 µM.
In the same order, the values of HSKYPLPPLPSL [PD1] are 0.23 ± 0.03 µM, 48.7 ± 1.65 µM, 112 ± 10.1 µM and more than 300 µM.
As for HTLQIPQHATSF, the “relative Lck-SH3-Bindungsaktivität” value in experiment [6] is on record as “nicht bindende”.
